Measured values: patent publication US20230133958A1, “COMPOUNDS USEFUL IN MODULATING EGFR AND PI3K” (Mekanistic Therapeutics LLC, priority 2021, published 2023)

How the values were obtained:
Assay type in all cases: cell-based
[1] = system: HCC-2998; experiment: NCI COMPARE panel (SRB growth inhibition), HCC-2998; conditions: Homo sapiens; Colon Cancer, HCC-2998, 48 h
Protocol: (§1) The human tumor cell lines of the cancer screening panel are grown in RPMI 1640 medium containing 5% fetal bovine serum and 2 mM L-glutamine. For a typical screening experiment, cells are inoculated into 96 well microtiter plates in 100 µL at plating densities ranging from 5,000 to 40,000 cells/well depending on the doubling time of individual cell lines. After cell inoculation, the microtiter plates are incubated at 37° C., 5% CO2, 95% air and 100% relative humidity for 24 h prior to addition of experimental drugs.
(§2) After 24 h, two plates of each cell line are fixed in situ with TCA, to represent a measurement of the cell population for each cell line at the time of drug addition (Tz). Experimental drugs are solubilized in dimethyl sulfoxide at 400-fold the desired final maximum test concentration and stored frozen prior to use. […]
(§3) Following drug addition, the plates are incubated for an additional 48 h at 37° C., 5 % CO2, 95% air, and 100% relative humidity. […] Bound stain is subsequently solubilized with 10 mM trizma base, and the absorbance is read on an automated plate reader at a wavelength of 515 nm. […] Using the seven absorbance measurements [time zero, (Tz), control growth, (C), and test growth in the presence of drug at the five concentration levels (Ti)], the percentage growth is calculated at each of the drug concentrations levels. Percentage growth inhibition is calculated as: […]

[2] = system: HCT-116; experiment: NCI COMPARE panel (SRB growth inhibition), HCT-116; conditions: Homo sapiens; Colon Cancer, HCT-116, 48 h
Protocol: as §1, §2, §3

[3] = system: HOP-62; experiment: NCI COMPARE panel (SRB growth inhibition), HOP-62; conditions: Homo sapiens; Non-Small Cell Lung Cancer, HOP-62, 48 h
Protocol: as §1, §2, §3

[4] = system: HOP-92; experiment: NCI COMPARE panel (SRB growth inhibition), HOP-92; conditions: Homo sapiens; Non-Small Cell Lung Cancer, HOP-92, 48 h
Protocol: as §1, §2, §3

[5] = system: NCI-H322M; experiment: NCI COMPARE panel (SRB growth inhibition), NCI-H322M; conditions: Homo sapiens, Non-Small Cell Lung Cancer, 48 h
Protocol: as §1, §2, §3

[6] = system: IGROV1; experiment: NCI COMPARE panel (SRB growth inhibition), IGROV1; conditions: Homo sapiens, IGROV-1; Ovarian Cancer, IGROV1, 48 h
Protocol: as §1, §2, §3

[7] = system: DU-145; experiment: NCI COMPARE panel (SRB growth inhibition), DU-145; conditions: Homo sapiens; Prostate Cancer, DU-145, 48 h
Protocol: as §1, §2, §3

[8] = system: A498; experiment: NCI COMPARE panel (SRB growth inhibition), A498; conditions: Homo sapiens; Renal Cancer, A498, 48 h
Protocol: as §1, §2, §3

[9] = system: ACHN; experiment: NCI COMPARE panel (SRB growth inhibition), ACHN; conditions: Homo sapiens, Renal Cancer, 48 h
Protocol: as §1, §2, §3

[10] = system: RXF 393; experiment: NCI COMPARE panel (SRB growth inhibition), RXF 393; conditions: Homo sapiens; Renal Cancer, RXF 393, 48 h
Protocol: as §1, §2, §3

Row | SMILES | GI50 [1] [nM] | GI50 [2] [nM] | GI50 [3] [nM] | GI50 [4] [nM] | GI50 [5] [nM] | GI50 [6] [nM] | GI50 [7] [nM] | GI50 [8] [nM] | GI50 [9] [nM] | GI50 [10] [nM]
1 | CS(=O)(=O)Nc1cc(-c2ccc3ncnc(Nc4cccc(Cl)c4F)c3c2)cnc1Cl [Compound 6, N-[2-chloro-5-[4-(3-chloro-2-fluoro-anilino)quinazolin-6-yl]-3-pyridyl] methanesulfonamide] | 125 to 250 | 125 to 250 | 75 to 125 | ≤ 75 | 125 to 250 | ≤ 75 | 125 to 250 | ≤ 75 | 125 to 250 | 75 to 125
2 | CS(=O)(=O)Nc1cc(-c2ccc3ncc(C#N)c(Nc4cccc(Cl)c4F)c3c2)cnc1Cl [Compound 10, N-[2-chloro-5-[4-(3-chloro-2-fluoro-anilino)-3-cyano-6-quinolyl]-3-pyridyl]methanesulfonamide] | > 250 | ≤ 75 | 125 to 250 | ≤ 75 | > 250 | 75 to 125 | 125 to 250 | ≤ 75 | > 250 | ≤ 75
